Laboratory results reported in paper PMC6155403, “Camellia sinensis L. Extract and Its Potential Beneficial Effects in Antioxidant, Anti-Inflammatory, Anti-Hepatotoxic, and Anti-Tyrosinase Activities” (Molecules : A Journal of Synthetic Chemistry and Natural …, 2017).

How the values were obtained:
[1] = DPPH free radical scavenging assay; details: 30 min, room temperature (30 °C), 515 nm
Experimental: The DPPH method [36] was used to determine the free radical-scavenging potential of each sample. The test sample (0.1 mL) was added to 3.9 mL of DPPH solution (6 × 10^−5 M). The absorbance was measured at 515 nm after 30 min of the reaction at room temperature (30 °C). The antiradical activity was calculated as a percentage of DPPH decolouration versus a control. The results were expressed as the concentration of the FTE that scavenged 50% of the free radicals from the reaction mixture (SC50). The percent DPPH scavenging effect was calculated by using following equation [37]: (1) DPPHscavengingeffect(%)orPercentinhibition=[Ao - At/Ao]×100 where Ao is the absorbance of the control reaction and At is the absorbance in the presence of a test or standard sample. AsA, BHA, BHT, and tocopherol were used as positive references.

[2] = biological target: mushroom tyrosinase; assay: Mushroom tyrosinase inhibition in vitro (dopachrome method, L-DOPA oxidation); type: biochemical; details: mean ± SEM; L-DOPA substrate, pH 6.8, 25 °C
Experimental: Briefly, 120 µL of 20 mM phosphate buffer (pH 6.8), 40 µL of 48 units/mL mushroom tyrosinase, and 20 µL of various sample concentrations with or without enzyme were placed in the wells of a 96-well microplate. After pre-incubation at 25 °C for 10 min, 20 µL of 0.85 mM L-DOPA was added, and the plate was subsequently incubated at 25 °C for 20 min. The amount of dopachrome was measured at 492 nm in an ELISA plate reader (Anthos 2010, Anthos Labtec Instruments GmbH, Wals, Austria). The extent of inhibition by the test samples was expressed as the percentage of concentration necessary to achieve 50% inhibition (IC50).

[3] = Chelation of ferrous metal ions (ferrozine-Fe2+ complex formation); details: mean ± SD; 10 min, 30 °C, 562 nm
Experimental: The method of Gülçin et al. was followed. The reaction mixture, containing different concentrations of each sample, FeCl2 (2 mM), and ferrozine (1.5 mM), was adjusted to a total volume of 4 mL with absolute methanol, shaken well, and incubated for 10 min at room temperature (30 °C). The absorbance of the mixture was measured at 562 nm against a blank. EDTA was used as the positive reference. The percent inhibition of ferrozine-Fe^2+ complex formation was calculated against a control. The results were expressed as the concentration of the FTE that chelated 50% of metal ions (IC50).

Anti-tyrosinase IC50 [2] [µg/mL] | SMILES | SC50 (50% inhibition of the DPPH scavenging effect) [1] | other results
110.00 ± 0.00 | Oc1cc(O)c2c(c1)O[C@H](c1cc(O)c(O)c(O)c1)[C@H](O)C2 [EGC, (−)-epigallocatechin] | – | –
234.00 ± 6.00 | O=C(O[C@@H]1Cc2c(O)cc(O)cc2O[C@@H]1c1cc(O)c(O)c(O)c1)c1cc(O)c(O)c(O)c1 [EGCG, (−)-epigallocatechin-3-gallate] | – | –

The remaining lines, values behind:

SMILES | Anti-tyrosinase IC50 [2] [µg/mL] | SC50 (50% inhibition of the DPPH scavenging effect) [1] | other results
Cc1cc(C(C)(C)C)c(O)c(C(C)(C)C)c1 [BHT, butylated hydroxytoluene] | – | 0.224 ± 0.005 moles of tested compound/mole DPPH | –
O=C(O)CN(CCN(CC(=O)O)CC(=O)O)CC(=O)O [EDTA, ethylenediaminetetraacetic acid] | – | – | Iron(II)-chelating IC50 [3]: 10 ± 0 µg/mL
O=C(O[C@@H]1Cc2c(O)cc(O)cc2O[C@@H]1c1ccc(O)c(O)c1)c1cc(O)c(O)c(O)c1 [ECG, (−)-epicatechin-3-gallate] | 76.50 ± 1.50 | – | –
O=C1O[C@H]([C@@H](O)CO)C(O)=C1O [AsA, ascorbic acid] | – | 0.209 ± 0.006 moles of tested compound/mole DPPH | –
Cc1c(C)c2c(c(C)c1O)CCC(C)(CCCC(C)CCCC(C)CCCC(C)C)O2 (racemic) [Tocopherol, DL-α-tocopherol] | – | 0.196 ± 0.005 moles of tested compound/mole DPPH | –
COc1ccc(O)c(C(C)(C)C)c1 [BHA, butylated hydroxyanisole] | – | 0.184 ± 0.011 moles of tested compound/mole DPPH | –
